{"source": "paper PMC10517462", "about": "“Small molecule targeting of the p38/Mk2 stress signaling pathways to improve cancer treatment” (BMC Cancer, 2023)", "key": {"[1]": {"system": "SW620 colorectal cancer cell line", "experiment": "CCK8 cell viability assay, SW620", "format": "cell-based, human", "details": "MK2.III 1 µM or etoposide 150 µM alone, 24 h", "procedure": "To assess the effect of MK2.III kinase inhibitor and the etoposide (VP-16) on the viability of different cancer cell lines, cells were seeded in 96-well plates in a concentration of 5000 cells per well. After 12 h, etoposide and 1 μM MK2.III diluted in culture media were added into the wells for 24 h. NCI-H69 cells were exposed to a series of etoposide concentrations from 20 μM to 150 μM. MDA-MB-231, SW 620, and SW 480 cell lines were incubated with 150 μM etoposide. After treatment, 10 μL of the CCK-8 reagent (96992, Sigma) was added to each well for 1 h followed by optical density measurement at 450 nm using hybrid plate reader Synergy H1."}, "[2]": {"experiment": "Pharmacokinetics of MK2.III in CD-1 mice (HPLC-MS/MS)", "format": "in vivo, CD-1 mouse", "procedure": "We investigated the pharmacokinetics (PK) and bioavailability of small molecules (MK2.III) with intraperitoneal and intravenous injection before studying its tumor suppressor properties in combination with DNA-damaging agents. For this set of experiments CD-1 mouse line (male,7 weeks, body weight of 23–25 g, n = 198, Charles River) was used with a one-time intraperitoneal injection (IP) of 2, 10, and 50 mg/kg doses of the MK2.III or 2 mg/kg intravenous injection (IV) of the same drug. The small molecule was prepared using PBS containing 10% DMSO. MK2.III was isolated from mouse serum using protein settling method with acetonitrile and drug concentrations were detected using HPLC – MS/MS.\nBlood samples were obtained from the retro-orbital sinus (at […] for IV groups; at […] for IP groups, respectively) in polypropylene tubes containing 20 μl of 5% EDTA. Blood plasma was separated by centrifugation at 1500 g for 10 min and was stored at -80 °C until analysis. Data were obtained from six animals per time.\nAn Agilent 1260 Infinity system, a hybrid triple-quadrupole mass spectrometer, and QTRAP 5500 electrospray ionization were used for determining the MK2.III concentration in blood plasma. Separations were achieved using a YMC Triart C18 50 × 2,1 mm, 1,9 μm column. The mobile phase consisted of A (0.1% aqueous formic acid) and B (0.1% formic acid in acetonitrile). The gradient elution t = 0, A:B 95:5; t = 2 min A:B 5:95; t = 2.1 A:B 5:95; t = 2.2 A:B 95:5; t = 2.8 A:B 95:5; flow rate was 0.5 mL min − 1; Retention time—2.8 min. The injection volume was 2 μL. The temperature of the column was set at 40 °C. Tolbutamide was selected as an internal standard. Thawed plasma (45 μL) was transferred to a microtube (1.1 mL volume), treated with a standard solution (5 μL) of the analytes in acetonitrile: water (1:1), stirred on a vortex mixer for 10 s, treated with tolbutamide solution (200 ng/ml), stirred again on the vortex mixer for 10 s, and then proteins were precipitated in the cold at + 4 °C for 15 min, centrifuged for 10 min at 1500 g. The supernatant (150 µl) was transferred to a clean 96-well plate for HPLC–MS/MS analysis. Samples were stored at a temperature not exceeding -70 °C until analysis. The calculation of pharmacokinetic parameters was performed by using Phoenix® WinNonlin® software, version 6.3 (Pharsight Corp., Cary, NC, USA)."}, "NCI-H69 cells": {"system": "NCI-H69 cells", "experiment": "FACS-based cell cycle analysis", "set-up": "species or system human", "details": "single treatment, increasing dose", "procedure": "The cells were grown in 12 well plates (Scientific Laboratory Supplies Limited, UK) in RPMI 1640 (Gibco, UK) supplemented with 10% FBS (Autogen Bioclear, UK) and 10,000 U/ml penicillin and 10 mg/ml streptomycin (Sigma, UK) at 37 °C under 5% CO2 and treated with 10, 20, 50, 100 and 150 µM of DNA damaging agent etoposide (VP-16) (Sigma, UK) in the presence or absence of p38MAPK inhibitor SB203580 (Tocris Chemical Co., UK) or MK2 inhibitor MK2.III (Merck, UK) in concentrations of 0, 0.3125, 0.625, 1.25, 2.5, and 5.0 µM. Etoposide, SB203580 and MK2.III were all dissolved in 0.2% of DMSO before use. Cells treated only with the carrier molecule DMSO (0.2%) served as a control.\nViability analysis was performed by staining with the […], stoichiometric DNA stain DRAQ7 (640 or 633 nm excitation and 670 nm emission; Biostatus Limited). After 48-h treatment with DNA damaging agents and/or inhibitors, cells were washed once with RPMI 1640 and resuspended in 1 ml culture media at a concentration of less than 5 × 10^5/ ml. Cells were stained with 20 µM of DRAQ7 and incubated at 37 °C for 10 min before FACS Calibur cytometer analysis. Fluorescent signals were amplified using linear mode. Cell cycle analysis was performed either by staining DRAQ7 or Propidium Iodide (PI). Cells were stained with 20 µM of DRAQ7 and incubated at 37 °C for 10 min before analysis on a FACSCalibur cytometer. […]"}, "[3]": {"details": "2 mg/kg intraperitoneal, mice serum"}, "[4]": {"details": "10 mg/kg intraperitoneal, mice serum"}, "[5]": {"details": "50 mg/kg intraperitoneal, mice serum"}}}
{"smiles": "O=C1NCCc2[nH]c(-c3ccnc(-c4cnc5ccccc5c4)c3)cc21", "note": "[MK2.III]", "values": [{"measurement": "Decrease of viability by single agent", "setting": "[1]", "value": 30, "unit": "%"}, {"measurement": "AUClast", "setting": "[2]; [3]", "value": "1,99 hr*ng/ml"}, {"measurement": "Cmax", "setting": "[2]; [3]", "value": "2,15 ng/ml"}, {"measurement": "MRTlast", "setting": "[2]; [3]", "value": "1,28 hr"}, {"measurement": "Tmax", "setting": "[2]; [3]", "value": 2, "unit": "h"}, {"measurement": "Highest concentration of the drug in serum", "setting": "[2]; 2 mg/kg intravenous, at the time of the injection", "value": 11, "unit": "ng/mL"}, {"measurement": "Serum concentration", "setting": "[2]; 2 mg/kg intravenous, one-hour interval", "value": 2.15, "unit": "ng/mL"}, {"measurement": "AUCinf", "setting": "[2]; [4]", "value": 203, "unit": "ng·h/mL"}, {"measurement": "AUClast", "setting": "[2]; [4]", "value": 130, "unit": "ng·h/mL"}, {"measurement": "Cl/F", "setting": "[2]; [4]", "value": 821, "unit": "mL/min/kg"}, {"measurement": "Cmax", "setting": "[2]; [4]", "value": "38,3 ng/ml"}, {"measurement": "Kel", "setting": "[2]; [4]", "value": "0,05 1/hr"}, {"measurement": "MRTinf", "setting": "[2]; [4]", "value": "21,7 hr"}, {"measurement": "MRTlast", "setting": "[2]; [4]", "value": "8,59 hr"}, {"measurement": "T1/2", "setting": "[2]; [4]", "value": "14,4 hr"}, {"measurement": "Tmax", "setting": "[2]; [4]", "value": "0,5 hr"}, {"measurement": "Vz/F", "setting": "[2]; [4]", "value": 1027, "unit": "L/kg"}, {"measurement": "AUCinf", "setting": "[2]; [5]", "value": 548, "unit": "ng·h/mL"}, {"measurement": "AUClast", "setting": "[2]; [5]", "value": 227, "unit": "ng·h/mL"}, {"measurement": "Cl/F", "setting": "[2]; [5]", "value": 1520, "unit": "mL/min/kg"}, {"measurement": "Cmax", "setting": "[2]; [5]", "value": "42,4 ng/ml"}, {"measurement": "Kel", "setting": "[2]; [5]", "value": "0,02 1/hr"}, {"measurement": "MRTinf", "setting": "[2]; [5]", "value": "42,3 hr"}, {"measurement": "MRTlast", "setting": "[2]; [5]", "value": "10,3 hr"}, {"measurement": "T1/2", "setting": "[2]; [5]", "value": "28,3 hr"}, {"measurement": "Tmax", "setting": "[2]; [5]", "value": "0,5 hr"}, {"measurement": "Vz/F", "setting": "[2]; [5]", "value": 3718, "unit": "L/kg"}, {"measurement": "Cmax", "setting": "[2]; higher doses (10 and 50 mg/kg) intraperitoneal, within 30 min after injection", "value": "around 40 ng/ml"}, {"measurement": "Linearity of pharmacokinetics", "setting": "[2]; range of 2-50 mg/kg dose, intraperitoneal", "value": "does not represent linearity"}, {"measurement": "Effect on cell cycle profile, single agent", "setting": "NCI-H69 cells", "value": "little effect on the cell cycle profile"}]}
